Data as given in ChEMBL document CHEMBL2429823, “Synthesis and biological evaluation of novel 3,4-diaryl lactam derivatives as triple reuptake inhibitors” (Bioorg Med Chem Lett, 2013).
pIC50: −log10 of the molar value.

Columns and labels:
[1] = biological target: T1, Sodium-dependent noradrenaline transporter (Homo sapiens, UniProt P23975); experiment: Displacement of [3H]Nisoxetine from human recombinant NET over-expressed in dog MDCK cells at 10 uM; format: cell-based
[2] = biological target: T2, Sodium-dependent serotonin transporter (Homo sapiens, UniProt P31645); experiment: Displacement of [3H]imipramin from human recombinant SERT over-expressed in HEK293 cells at 10 uM; format: cell-based
Target sequence in this assay (P31645 whole entry, looked up): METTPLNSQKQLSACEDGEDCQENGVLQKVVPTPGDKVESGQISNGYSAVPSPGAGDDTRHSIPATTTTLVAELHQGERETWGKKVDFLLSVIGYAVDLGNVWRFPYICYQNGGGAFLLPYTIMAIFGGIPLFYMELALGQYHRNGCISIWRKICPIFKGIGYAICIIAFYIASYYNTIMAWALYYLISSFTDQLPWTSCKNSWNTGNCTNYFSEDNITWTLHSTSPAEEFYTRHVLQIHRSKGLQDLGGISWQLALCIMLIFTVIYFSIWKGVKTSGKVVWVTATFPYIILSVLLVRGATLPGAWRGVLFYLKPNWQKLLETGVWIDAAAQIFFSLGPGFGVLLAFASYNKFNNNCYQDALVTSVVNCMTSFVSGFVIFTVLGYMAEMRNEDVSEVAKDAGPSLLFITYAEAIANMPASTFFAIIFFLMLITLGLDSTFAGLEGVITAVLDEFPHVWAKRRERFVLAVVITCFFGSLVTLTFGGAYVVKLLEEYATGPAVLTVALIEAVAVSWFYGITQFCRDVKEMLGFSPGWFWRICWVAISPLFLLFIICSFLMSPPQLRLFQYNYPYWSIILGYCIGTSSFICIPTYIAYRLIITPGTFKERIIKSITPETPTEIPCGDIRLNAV

[3] = biological target: T1, Sodium-dependent noradrenaline transporter; experiment: biochemical
[4] = biological target: T2, Sodium-dependent serotonin transporter; conditions: HEK293, at 10 µM
Target sequence in this assay (P31645 whole entry, looked up): as above
Description: Inhibition of human SERT-mediated serotonin uptake expressed in HEK293 cells at 10 uM after 15 mins by fluorescence plate reader analysis

[5] = biological target: T3, Sodium-dependent dopamine transporter (Homo sapiens, UniProt Q01959); experiment: biochemical
T3 sequence (Q01959 whole entry): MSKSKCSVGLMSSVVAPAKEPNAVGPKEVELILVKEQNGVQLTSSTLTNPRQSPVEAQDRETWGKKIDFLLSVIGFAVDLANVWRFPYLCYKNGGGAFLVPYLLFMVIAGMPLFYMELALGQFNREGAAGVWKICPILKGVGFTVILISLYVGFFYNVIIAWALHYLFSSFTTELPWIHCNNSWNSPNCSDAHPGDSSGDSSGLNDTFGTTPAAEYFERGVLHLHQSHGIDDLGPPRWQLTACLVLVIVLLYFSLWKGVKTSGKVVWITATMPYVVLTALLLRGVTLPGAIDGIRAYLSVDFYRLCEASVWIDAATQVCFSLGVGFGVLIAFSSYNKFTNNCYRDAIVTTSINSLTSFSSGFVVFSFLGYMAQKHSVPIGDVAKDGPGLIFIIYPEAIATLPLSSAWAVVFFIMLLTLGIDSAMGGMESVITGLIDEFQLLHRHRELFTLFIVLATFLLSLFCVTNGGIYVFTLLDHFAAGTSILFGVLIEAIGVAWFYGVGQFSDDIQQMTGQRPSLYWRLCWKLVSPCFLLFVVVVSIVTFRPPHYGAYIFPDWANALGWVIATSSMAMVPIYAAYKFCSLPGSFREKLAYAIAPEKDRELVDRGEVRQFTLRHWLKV

[6] = biological target: T3, Sodium-dependent dopamine transporter; experiment: Displacement of [3H]Win35428 from human recombinant DAT over-expressed in CHOK1 cells at 10 uM; format: cell-based; conditions: CHO-K1
[7] = biological target: T2, Sodium-dependent serotonin transporter; experiment: biochemical; format: cell-based, HEK293
Target sequence in this assay (P31645 whole entry): as the sequence (P31645 whole entry, looked up) above

T1 sequence (P23975 whole entry): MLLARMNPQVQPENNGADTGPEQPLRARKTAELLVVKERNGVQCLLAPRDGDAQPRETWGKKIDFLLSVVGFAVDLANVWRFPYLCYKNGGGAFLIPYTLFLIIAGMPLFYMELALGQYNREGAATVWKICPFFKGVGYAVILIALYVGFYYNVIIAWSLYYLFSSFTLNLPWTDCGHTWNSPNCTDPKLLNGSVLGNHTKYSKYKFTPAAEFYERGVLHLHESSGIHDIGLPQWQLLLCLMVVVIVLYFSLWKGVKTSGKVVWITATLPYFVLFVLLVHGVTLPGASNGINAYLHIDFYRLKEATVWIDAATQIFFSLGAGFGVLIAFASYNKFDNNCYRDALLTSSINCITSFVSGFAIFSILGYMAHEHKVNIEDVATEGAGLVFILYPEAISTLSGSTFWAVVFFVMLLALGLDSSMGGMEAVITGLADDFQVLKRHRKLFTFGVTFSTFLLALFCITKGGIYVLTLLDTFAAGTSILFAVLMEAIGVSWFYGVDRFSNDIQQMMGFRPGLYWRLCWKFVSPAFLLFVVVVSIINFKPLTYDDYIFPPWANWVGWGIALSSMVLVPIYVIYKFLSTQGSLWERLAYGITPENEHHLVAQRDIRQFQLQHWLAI

inhibition [1] [%]	inhibition [2] [%]	pIC50 [3]	inhibition [4] [%]	pIC50 [5]	inhibition [6] [%]	pIC50 [7]	Structure (SMILES)
83	90	5.69	50.4	7.00	76	7.07	O=C1NCC(c2ccc(Cl)c(Cl)c2)C1c1ccc(Cl)cc1 (configuration not stated)
90	26	5.60	6.2	5.76	87		O=C1NCC(c2ccccc2Cl)C1c1ccc(Cl)c(Cl)c1 (configuration not stated)
41	39		20.2	7.76	96		O=C1NCC(c2cccc(Cl)c2)C1c1ccccc1Cl (configuration not stated)
99	52	6.29	21.9	8.09	100		O=C1NCC(c2ccc(Cl)c(Cl)c2)C1c1ccccc1Cl (configuration not stated)
5	23		19.3	5.67	70		O=C1NCC(c2ccccc2Cl)C1c1ccccc1 (configuration not stated)
33	20		6.9		45		O=C1NCC(c2ccccc2Cl)C1c1ccccc1Cl (configuration not stated)
89	56	5.86	4.5		23		O=C1NCC(c2ccccc2Cl)C1c1ccc2ccccc2c1 (configuration not stated)
87	49	5.78	38.4	7.48	95		O=C1NCC(c2cccc(Cl)c2)C1c1ccc(Cl)cc1 (configuration not stated)
87	49	6.06	29.4	7.44	83		O=C1NCC(c2ccc(Cl)c(Cl)c2)C1c1ccccc1 (configuration not stated)
92	57	5.72	22.7	6.55	96		O=C1NCC(c2ccc(Cl)cc2)C1c1ccc(Cl)c(Cl)c1 (configuration not stated)
74	49	5.45	23.4	7.09	97		O=C1NCC(c2ccc(Cl)cc2)C1c1ccccc1Cl (configuration not stated)
50	20		30.8	7.49	99		O=C1NCC(c2ccc(Cl)cc2)C1c1ccccc1 (configuration not stated)
60	26	5.12	8.5		51		O=C1NCC(c2ccccc2Cl)C1c1ccc(Cl)cc1 (configuration not stated)
72	22	5.42	12.2	7.44	99		O=C1NCC(c2ccc(Cl)cc2)C1c1cccc(Cl)c1 (configuration not stated)
75	84	5.29	58.1	6.75	99	7.00	O=C1NCC(c2ccc(Cl)cc2)C1c1ccc(Cl)cc1 (configuration not stated)

The remaining lines, values behind:

Structure (SMILES)	inhibition [1] [%]	inhibition [2] [%]	pIC50 [3]	inhibition [4] [%]	pIC50 [5]	inhibition [6] [%]	pIC50 [7]
O=C1NCC(c2ccc(Cl)c(Cl)c2)C1c1cccc(Cl)c1 (configuration not stated)	93	57	6.42	20.4	7.38	87	
Clc1cccc2c1CC[C@H]1NC[C@H](c3ccccc3)[C@@H]21	10	9				5	
Clc1ccc2c(c1Cl)CC[C@H]1NC[C@H](c3ccccc3)[C@@H]21	10	9				5	
Clc1ccc2c(c1)[C@@H]1[C@@H](c3ccccc3)CN[C@@H]1CC2	10	9				5	
O=C1NCC(c2cccc(Cl)c2)C1c1cccc(Cl)c1 (configuration not stated)	59	26		14.3	7.41	98	
O=C1NCC(c2ccc(Cl)c(Cl)c2)C1c1ccc2ccccc2c1 (configuration not stated)	94	69	6.32	4.4	6.92	86	6.02
O=C1NCC(c2ccc(Cl)c(Cl)c2)C1c1ccc(Cl)c(Cl)c1 (configuration not stated)	90	42	6.00	8.8	6.55	85	
O=C1NCC(c2cccc(Cl)c2)C1c1ccc(Cl)c(Cl)c1 (configuration not stated)	78	71	5.56	40.9	6.76	99	5.43
O=C1NCC(c2cccc(Cl)c2)C1c1ccccc1 (configuration not stated)	26	55		24.3	7.64	98	
O=C1NCC(c2ccc(Cl)cc2)C1c1ccc2ccccc2c1 (configuration not stated)	91	79	5.93	26.3	6.80	97	5.19
CNCCC(Oc1ccccc1OC)c1ccccc1 (configuration not stated)				54			
CN(C)CCCN1c2ccccc2CCc2ccc(Cl)cc21 [CLOMIPRAMINE]					5.56		
Clc1ccc2c(c1)CC[C@H]1NC[C@H](c3ccccc3)[C@@H]21	10	9				5	
